Data published in patent US20250041308A1, “BRUTON'S TYROSINE KINASE INHIBITORS AS ANTIVIRAL AGENTS” (University of Florida Research Foundation, Incorporated, priority 2022, published 2025).

Legend:
Type in all cases: cell-based, Epstein-Barr virus (EBV)
[1] = system: ZEBRA and cleaved caspase 1 in EBV-positive Mutu-I Burkitt lymphoma cells; experiment: Immunoblotting for ZEBRA, procaspase 1 and cleaved caspase 1 in Mutu-I cells induced with sodium butyrate; settings: 1 μM for 2 hours before sodium butyrate for 24 hours, FIG. 7
Source text: Cells were harvested and subjected to immunoblotting with monoclonal antibodies to ZEBRA, procaspase 1, cleaved caspase 1, or the control protein β-actin to analyze protein expression. […] Cleavage of caspase is a marker for programmed cell death.

[2] = system: EBV lytic cycle proteins ZEBRA and EA-D in EBV-positive HH514-16 Burkitt lymphoma cell line; experiment: Immunoblotting for ZEBRA and EA-D in HH514-16 cells induced with sodium butyrate
Source text: Cells were harvested and subjected to immunoblotting with monoclonal antibodies to ZEBRA and EA-D (Early antigen-diffuse). EA-D is useful in the diagnosis of acute Epstein-Barr virus (EBV) infection and EBV reactivation and functions downstream of ZEBRA.
Cells were harvested and subjected to immunoblotting with monoclonal antibodies to ZEBRA or the control protein β-actin to analyze protein expression.

[3] = system: EBV lytic cycle (ZEBRA) in EBV-positive Mutu-I Burkitt lymphoma cells; experiment: Flow cytometry for ZEBRA in Mutu-I cells, lytic cycle induced with sodium butyrate; settings: sodium butyrate 24 hours, 2 h pretreatment
Source text: (§1) Cells were harvested, fixed and permeabilized, stained with a monoclonal antibody to the viral latent-to-lytic switch protein ZEBRA, and examined by flow cytometry. Cells were stained in parallel with an isotype-matched control antibody for placement of gates. […] Decreasing EBV switching to lytic phase decreases the risk of the B cells developing lymphoma.

[4] = system: EBV lytic cycle (ZEBRA) in EBV-positive HH514-16 Burkitt lymphoma cell line; experiment: Flow cytometry for ZEBRA in HH514-16 cells, lytic cycle induced with AZA; settings: for Percent positive cells ZEBRA: 2 h pretreatment
Source text: Cells were harvested, fixed and permeabilized, stained with a monoclonal antibody to the viral latent-to-lytic switch protein ZEBRA (Z EBV Replication Activator), and examined by flow cytometry. Cells were stained in parallel with an isotype-matched control antibody for placement of gates.

[5] = system: EBV lytic cycle (ZEBRA) in EBV-positive HH514-16 Burkitt lymphoma cell line; experiment: Flow cytometry for ZEBRA in HH514-16 cells, lytic cycle induced with sodium butyrate; settings: for Percent positive cells ZEBRA: 2 h pretreatment
Source text: as §1, with “ZEBRA (Z EBV Replication Activator),” for “ZEBRA,”, “cytometry. ZEBRA is an early lytic protein of EBV, encoded by BZLFI, that drives the lytic cascade.” for “cytometry.”

[6] = system: EBV lytic cycle proteins ZEBRA and EA-D in EBV-positive HH514-16 Burkitt lymphoma cell line; experiment: Immunoblotting for ZEBRA and EA-D in HH514-16 cells induced with AZA; settings: HH514-16, varying concentrations 2 hours before AZA for 24 hours, FIG. 2
Source text: (§2) Cells were harvested and subjected to immunoblotting with monoclonal antibodies to ZEBRA and EA-D (Early antigen-diffuse).

[7] = system: EBV lytic cycle (ZEBRA) in EBV-positive Akata Burkitt lymphoma cell line; experiment: Flow cytometry for ZEBRA in Akata cells, lytic cycle induced with rabbit-anti human IgG; settings: for Percent positive cells ZEBRA: Rabbit anti-human IgG induction 24 h, 2 h pretreatment
Source text: Akata cells are an EBV-producer line established from a patient with Burkitt's lymphoma. Akata cells produce transforming virus upon treatment of cells with anti-immunoglobulin antibodies. Cells were harvested, fixed and permeabilized, stained with a monoclonal antibody to the viral latent-to-lytic switch protein ZEBRA (Z EBV Replication Activator), and examined by flow cytometry. Cells were stained in parallel with an isotype-matched control antibody for placement of gates.

[8] = system: EBV lytic cycle proteins ZEBRA and EA-D in EBV-positive Akata Burkitt lymphoma cell line; experiment: Immunoblotting for ZEBRA and EA-D in Akata cells induced with anti-IgG; settings: varying concentrations 2 hours before anti-IgG for 24 hours, FIG. 3
Source text: as §2

[9] = HH514-16, varying concentrations 2 hours before sodium butyrate for 24 hours, FIG. 4
[10] = HH514-16, varying concentrations 2 hours before NaB for 24 or 48 hours, FIG. 1

## C=CC(=O)N1CCC([C@@H]2CCNc3c(C(N)=O)c(-c4ccc(Oc5ccccc5)cc4)nn32)CC1 [Zanubrutinib]
[1]
  Cleaved caspase 1 (immunoblot): significantly reduced
  expression of ZEBRA (immunoblot): significantly reduced
[2]; [9]
  expression of ZEBRA (immunoblot): significantly reduced
[3]; inhibitor conc. 1 μM
  Percent ZEBRA positive cells: 0.65%
[3]; inhibitor conc. 10 μM
  Percent ZEBRA positive cells: 0.85%

## C=CC(=O)N1CCC[C@@H](n2nc(-c3ccc(Oc4ccccc4)cc3)c3c(N)ncnc32)C1 [Ibrutinib]
[4]; HH514-16, AZA 24 or 48 hours, varying concentrations
  levels of ZEBRA (flow cytometry, in words): decreased
[4]; HH514-16, AZA induction 24 h, ibrutinib 0.25 μM
  Percent positive cells ZEBRA: 13%
[4]; HH514-16, AZA induction 24 h, ibrutinib 0.5 μM
  Percent positive cells ZEBRA: 11%
[4]; HH514-16, AZA induction 24 h, ibrutinib 1 μM
  Percent positive cells ZEBRA: 9.0%
[4]; HH514-16, AZA induction 24 h, ibrutinib 2 μM
  Percent positive cells ZEBRA: 10%
[4]; HH514-16, AZA induction 24 h, ibrutinib 5 μM
  Percent positive cells ZEBRA: 9.0%
[4]; HH514-16, AZA induction 48 h, ibrutinib 0.25 μM
  Percent positive cells ZEBRA: 13%
[4]; HH514-16, AZA induction 48 h, ibrutinib 0.5 μM
  Percent positive cells ZEBRA: 13%
[4]; HH514-16, AZA induction 48 h, ibrutinib 1 μM
  Percent positive cells ZEBRA: 15%
[4]; HH514-16, AZA induction 48 h, ibrutinib 2 μM
  Percent positive cells ZEBRA: 13%
[4]; HH514-16, AZA induction 48 h, ibrutinib 5 μM
  Percent positive cells ZEBRA: 14%
[5]; HH514-16, NaB 24 or 48 hours, varying concentrations
  levels of ZEBRA (flow cytometry, in words): decreased
[5]; HH514-16, Sodium Butyrate induction 24 h, ibrutinib 0.25 μM
  Percent positive cells ZEBRA: 13%
[5]; HH514-16, Sodium Butyrate induction 24 h, ibrutinib 0.5 μM
  Percent positive cells ZEBRA: 9.5%
[5]; HH514-16, Sodium Butyrate induction 24 h, ibrutinib 1 μM
  Percent positive cells ZEBRA: 9.0%
[5]; HH514-16, Sodium Butyrate induction 24 h, ibrutinib 2 μM
  Percent positive cells ZEBRA: 8.6%
[5]; HH514-16, Sodium Butyrate induction 24 h, ibrutinib 5 μM
  Percent positive cells ZEBRA: 7.0%
[5]; HH514-16, Sodium Butyrate induction 48 h, ibrutinib 0.25 μM
  Percent positive cells ZEBRA: 38%
[5]; HH514-16, Sodium Butyrate induction 48 h, ibrutinib 0.5 μM
  Percent positive cells ZEBRA: 30%
[5]; HH514-16, Sodium Butyrate induction 48 h, ibrutinib 1 μM
  Percent positive cells ZEBRA: 23%
[5]; HH514-16, Sodium Butyrate induction 48 h, ibrutinib 2 μM
  Percent positive cells ZEBRA: 22%
[5]; HH514-16, Sodium Butyrate induction 48 h, ibrutinib 5 μM
  Percent positive cells ZEBRA: 18%
[6]
  expression of EA-D (immunoblot): significantly reduced
  expression of ZEBRA (immunoblot): significantly reduced
[7]; ibrutinib 0.25 μM
  Percent positive cells ZEBRA: 7%
[7]; ibrutinib 0.5 μM
  Percent positive cells ZEBRA: 7%
[7]; ibrutinib 1 μM
  Percent positive cells ZEBRA: 5.5%
[7]; ibrutinib 2 μM
  Percent positive cells ZEBRA: 5.7%
[7]; ibrutinib 5 μM
  Percent positive cells ZEBRA: 5.7%
[7]; rabbit-anti human IgG 24 hours, varying concentrations
  levels of ZEBRA (flow cytometry, in words): decreased
[2]; [10]
  expression of EA-D (immunoblot): significantly reduced
  expression of ZEBRA (immunoblot): significantly reduced
[2]; [9]
  expression of ZEBRA (immunoblot): significantly reduced
[8]
  expression of EA-D (immunoblot): significantly reduced
  expression of ZEBRA (immunoblot): significantly reduced
[3]; inhibitor conc. 0.5 μM
  Percent ZEBRA positive cells: 0.52%
[3]; inhibitor conc. 1 μM
  Percent ZEBRA positive cells: 0.73%

## CC#CC(=O)N1CCC[C@H]1c1nc(-c2ccc(C(=O)Nc3ccccn3)cc2)c2c(N)nccn12 [Acalabrutinib]
[1]
  Cleaved caspase 1 (immunoblot): significantly reduced
  expression of ZEBRA (immunoblot): significantly reduced
[2]; [9]
  expression of ZEBRA (immunoblot): significantly reduced
[3]; inhibitor conc. 1 μM
  Percent ZEBRA positive cells: 1.15%
[3]; inhibitor conc. 10 μM
  Percent ZEBRA positive cells: 0.92%
